In patent US6346547B1, “N-substituted amino acids, antioxidant pharmaceutical compositions containing n-substituted amino acids and methods for preventing cardiovascular diseases and/or preventing and/or treating antioxidant responsive diseases therewith” (Checkpoint, Genetics, Inc., priority 1999, dated 2002):
Values joined by “and” are separate entries in the source; they are usually repeats but may differ in a detail not shown here. Equal values may be shown once.

Key:
[1] = test system: human Low Density Lipoprotein; test: inhibition of copper catalyzed LDL autoxidation (FOX assay); type: biochemical
Protocol: The antioxidant performance of test compounds was evaluated by measuring the extent of low density lipoprotein hydroxyperoxide by copper catalyzed autoxidation using a published dye based color assay (FOX Assay, see Zadeh, “Methods in Enzymology”, 300, 58 (1999)). The assay is easily performed and read in a 96-well microtitre plate. Microtitre plate readers assure rapid measurement of optical density which gives precise replicate measurements. Samples are evaluated in duplicate of triplicate (n=2 or n=3) with FOX reagent to indicate the level of LDL-hydroperoxide formed. Samples containing only LDL and copper sulfate without test materials, served as a positive control for comparison with identical mixtures containing test materials (Tables 1-6). Inhibition is characterized by a lower optical density than that obtained without test materials (LDL and copper sulfate alone).
Briefly, the procedure involved mixing human Low Density Lipoprotein (Sigma Chemical Company L2139) at a concentration of between 200-1000 μg/mL in phosphate buffered saline pH−7.4 (Pierce #28372 BupH™ with copper sulfate to a final concentration of 10 μg/mL. Incubation at 25° C. or 37° C., open to air effected oxidation, the mixture was sampled at time zero and between 3 and 20 hours of incubation for measurement of hydroperoxide in the FOX assay. Samples 25-30 μL were diluted with 10 volumes of FOX reagent (ferrous ammonium sulfate and […], see Zadeh, noted above) and allowed to stand for 30 minutes. Thereafter they were read in a microtitre plate reader.
The inhibition of LDL oxidation by tricine, bicine, monocine, vitamin E, glycine-glycine (Good's buffer compound XIV) and seaweed extract was studied in the procedure above. Using the spectrophotometric technique known as the FOX assay, as described in Jiang, Z., et al., “Ferrous Ion Oxidation in Presence of Xylenol Orange for Detection of Lipid Hydroperoxide in Low Density Lipoprotein”, Analytical Biochemistry, Vol. 202, pp. 384-9 (1992), the oxidation of LDL's in the presence of known hydroxyl radical scavengers (vitamin E and Good's buffer glycine-glycine), and in the presence of therapeutic agents in accordance with the present invention (tricine, bicine, seaweed extract), was monitored. […] Norman Good et al., “Hydrogen Ion Buffers For Biological Research,” Biochemistry, vol. 5, p. 467 (1966). […] Table 6 is a comparison of tricine, bicine, monocine and vitamin E oxidation inhibition of LDL at 37° C., average n=3 measurement with standard deviation.

Mongolian gerbils [2] = test: gerbil forebrain ischemia (bilateral carotid occlusion): locomotor activity; type: in vivo, Mongolian gerbil; details: individual gerbil, Group 3, approximately 96 hours after surgery
Protocol: Mongolian gerbils are subjected to bilaterial occlusion of carotid arteries to cause complete forebrain ischemia. The Mongolian gerbil is extensively used as a model of cerebral ischemia because of its unusual cerebral circulation resulting in sensitive and pronounced destruction of hippocampal neuron cells. as a result, bilateral occlusion of carotid arteries causes complete forebrain ischemia. The gerbils were divided into three groups, Group 1 gerbils were sham control and were administered vehicle (control) orally without carotid occlusion. Group 2 received oral tricine treatment at 2000 mg/Kg in vehicle solution both 60 minutes before and after carotid occlusion. […] The arteries were occluded after a midline cervical incision was made to expose both common carotid arteries. The surgery was performed on a heated surface to maintain body temperature. On completion of surgery, the animals were placed on Vetbed® and allowed to recover under a heat lamp. (Group 1) was subjected to the same surgical procedures except that the carotid arteries were not occluded. The day of surgery is identified as Day 1. At approximately 96 hours after surgery, animals were tested for changes in locomotor activity, over two (2) consecutive periods of 15 minutes, using an automated cage. The automated cages contained photoactivated beams at two (2) positions (a low height and a high height) that recorded the number of crossings each gerbil made in each of two consecutive 15 minute periods.

[3] = test system: hippocampal neurons, CA1 area; test: gerbil forebrain ischemia (bilateral carotid occlusion): histology of CA1 neuronal damage; type: in vivo, Mongolian gerbil; parameters: scale not given here; details: Group 3, 6 animals examined
[4] = test system: hippocampal neurons, CA1 area; test: as above; type: in vivo, Mongolian gerbil; parameters: Total Rating, severity of neuronal damage to CA1 area, individual gerbil: scale not given here; details: oral tricine 2000 mg/Kg 60 minutes before and after carotid occlusion, day 5
Protocol: Mongolian gerbils are subjected to bilaterial occlusion of carotid arteries to cause complete forebrain ischemia. The Mongolian gerbil is extensively used as a model of cerebral ischemia because of its unusual cerebral circulation resulting in sensitive and pronounced destruction of hippocampal neuron cells. as a result, bilateral occlusion of carotid arteries causes complete forebrain ischemia. The gerbils were divided into three groups, Group 1 gerbils were sham control and were administered vehicle (control) orally without carotid occlusion. Group 2 received oral tricine treatment at 2000 mg/Kg in vehicle solution both 60 minutes before and after carotid occlusion. Group […] gerbils received vehicle (control) 60 minutes before and after occlusion. The arteries were occluded after a midline cervical incision was made to expose both common carotid arteries. The surgery was performed on a heated surface to maintain body temperature. On completion of surgery, the animals were placed on Vetbed® and allowed to recover under a heat lamp. (Group 1) was subjected to the same surgical procedures except that the carotid arteries were not occluded. The day of surgery is identified as Day 1. Animals were killed on day 5, after completion of locomotor testing, by overdose with anaesthetic and perfusion with saline followed by a solution containing 10% neutral buffered formalin to fix the brain in situ. The brains were removed by dissection, 5 μm sections were taken at the level of the dorsal hippocampus, to coincide with CA1 area, and stained with haematoxylin and eosin. the sections were examined under light microscope, rated for severity of neuronal damage to the CA1 area.

[5] = test system: New Zealand white rabbits; test: atherosclerotic lesions in thoracic aorta of cholesterol-fed rabbits; type: in vivo, rabbit; details: 12 weeks
Excerpt: Ten female new Zealand white rabbits were divided into two groups of five (5) rabbits and subjected to an identical diet of Purina® rabbit chow supplemented with 1% cholesterol. […] A second group of five (5) rabbits received 1% tricine in their drinking water. Both groups were maintained under this feeding protocol for a period of twelve (12) weeks. Plasma samples were taken at study initiation and at two (2) week intervals throughout the study for measurement of total cholesterol. Systemic observations and body weights were regularly recorded. At twelve (12) weeks, the thoracic aorta was harvested from each animal, sliced longitudinally and preserved in 10% neutral formalin for subsequent analysis. Each aorta was individually stained with Sudan IV, and photographed for the extent of atherosclerotic lesions. Comparisons of percent atheroscledrotic lesions on the luminal surface between the groups enabled evaluation of the effect of tricine test article on atherosclerosis in this rabbit model.

rats = details: both, rat, in vivo, po, 14 days
Protocol: It is essential that any amino-acid-based compound used in accordance with the present invention have a low toxicity such that internal use in humans and other mammals is safe and well tolerated. Amino acid-based compounds used in accordance with the invention generally display no acute toxic effects at 1000 mg/Kg in rats after 2 weeks following oral administration. Preferably, amino acid-based compounds used in accordance with the present invention will display no effects at oral doses of at least 2000 mg/Kg in rats. […] For example, a cohort of rats can be fed a given dosage of an amino acid-based compound of general formula (I) and the relative toxic effects of the cohort can be monitored in comparison to a cohort fed a normal diet using standard EPA protocols.
Two cohorts of rats, each consisting of five females and five males, were marked and weighed. Each rat in a single cohort was administered 2000 mg/kg of tricine in a single oral dosage. Survival and body weight of the rats in each cohort was evaluated after 14 days to determine relative acute toxicity. Survival and general pathology was identical for both the control cohort and the tricine-treated cohort.

Mongolian gerbils [6] = test: gerbil forebrain ischemia (bilateral carotid occlusion): locomotor activity; type: in vivo, Mongolian gerbil; details: individual gerbil, Group 3, approximately 96 hours after surgery, first 15 minute period
[7] = 10 mM, time 0 hours, 37° C., average n=3, none 0.03
[8] = 10 mM, time 3 hours, 37° C., average n=3, none 0.99
[9] = 1% tricine in drinking water, 1% cholesterol diet, Sudan IV stain
[10] = 1% tricine in drinking water, five rabbits, control mean 65

With `O=C(O)CN(CCO)CCO` [Bicine, N,N-bis(hydroxyethyl)glycine] as the compound, how does the “FOX assay OD (LDL hydroperoxide)” value [1, 7] read?
Its value is −0.02.

And the “FOX assay OD (LDL hydroperoxide)” value [1, 8]?
The value was 0.02.

And the “FOX assay OD (LDL hydroperoxide)” value ([1]; Bicine 25 μM, time 0 hours, room temperature, average n = 3)?
The value was −0.010.

What about the “FOX assay OD (LDL hydroperoxide)” value ([1]; Bicine 25 μM, time 4 hours, room temperature, average n = 3, none 0.295) of the same compound?
The value was 0.050.

And the “FOX assay OD (LDL hydroperoxide)” value ([1]; Bicine 50 μM, time 0 hours, room temperature, average n = 3)?
Its value is −0.007.

What about the “FOX assay OD (LDL hydroperoxide)” value ([1]; Bicine 50 μM, time 4 hours, room temperature, average n = 3, none 0.295) of the same compound?
The value was 0.030.

And the “FOX assay OD (LDL hydroperoxide)” value ([1]; Bicine 100#M, time 0 hours, room temperature, average n = 3)?
Its value is −0.002.

What about the FOX assay OD (LDL hydroperoxide) ([1]; Bicine 100#M, time 4 hours, room temperature, average n = 3, none 0.295) of the same compound?
Its FOX assay OD (LDL hydroperoxide) is 0.04.

What does the source list for `O=C(O)CNC(CO)(CO)CO` [Tricine, N-tris(hydroxymethyl)methyl glycine]?
locomotor activity, beam crossings, High beam, Total (Mongolian gerbils [2]): 71 and 51 and 76 and 56 and 174; locomotor activity, beam crossings, Low beam, Total (Mongolian gerbils [2]): 665 and 691 and 525 and 615 and 727 and 451; locomotor activity, beam crossings, Low beam, 15 min (Mongolian gerbils [2]; first 15 minute period): 455 and 559 and 456 and 553 and 543 and 372; locomotor activity, beam crossings, High beam, 30 min (Mongolian gerbils [2]; second 15 minute period): 15 and 7 and 9 and 16 and 12 and 64; locomotor activity, beam crossings, Low beam, 30 min (Mongolian gerbils [2]; second 15 minute period): 210 and 132 and 69 and 62 and 184 and 79; Mean Score for Group ([3]; occluded vehicle Group 7: 4.3): 2.5; Total Score for Group ([3]; occluded vehicle Group 7: 13 (3 animals)): 15; Side 1 Rating, severity of neuronal damage to CA1 area, individual gerbil [4]: 3 (Marked→approximately 75% to 100% of neurons damaged) and 1 (Minimal→up to approximately 25% of neurons damaged) (5×); Side 2 Rating, severity of neuronal damage to CA1 area, individual gerbil [4]: 3 (Marked→approximately 75% to 100% of neurons damaged) and 1 (Minimal→up to approximately 25% of neurons damaged) (4×) and 0; Total Rating, severity of neuronal damage to CA1 area, individual gerbil ([4]; sum of both sides): 6 and 2 (4×) and 1; Arch Area, percent atherosclerotic lesions on luminal surface, individual rabbit [5, 9]: 19% and 39% and 27% and 17% and 22%; Descending Area, percent atherosclerotic lesions on luminal surface, individual rabbit [5, 9]: 21% (2×) and 28% and 8% and 17%; Total Area, percent atherosclerotic lesions on luminal surface, individual rabbit [5, 9]: 20% and 38% and 26% and 14% and 21%; Arch Area, Mean Value ([5]; 1% tricine in drinking water, five rabbits, control mean 63): 25%; Descending Area, Mean Value [5, 10]: 19%; Total Area, Mean Value [5, 10]: 24%; Arch Area, Median Value ([5]; 1% tricine in drinking water, five rabbits, control median 65): 22%; Total Area, Median Value ([5]; 1% tricine in drinking water, five rabbits, control median 67): 21%; Descending Area, Median Value ([5]; 1% tricine in drinking water, five rabbits, control median 68): 21%; reduced plaque deposits in the aorta ([5]; tricine treated rabbits versus control group): 63%; FOX assay OD (LDL hydroperoxide) [1, 7]: −0.01; FOX assay OD (LDL hydroperoxide) [1, 8]: 0.05; FOX assay OD (LDL hydroperoxide) ([1]; Tricine 25 μM, time 0 hours, room temperature, average n = 3): −0.012; FOX assay OD (LDL hydroperoxide) ([1]; Tricine 25 μM, time 4 hours, room temperature, average n = 3, none 0.295): 0.061; FOX assay OD (LDL hydroperoxide) ([1]; Tricine 50 μM, time 0 hours, room temperature, average n = 3): −0.007; FOX assay OD (LDL hydroperoxide) ([1]; Tricine 50 μM, time 4 hours, room temperature, average n = 3, none 0.295): 0.038; FOX assay OD (LDL hydroperoxide) ([1]; Tricine 100 μM, time 0 hours, room temperature, average n = 3): 0.0645; FOX assay OD (LDL hydroperoxide) ([1]; Tricine 100 μM, time 4 hours, room temperature, average n = 3, none 0.295): 0.028; preliminary acute toxicity level (rats): > 2000 mg/kg; locomotor activity, beam crossings, High beam, 15 min (Mongolian gerbils [6]): 56 and 44 (2×) and 67 and 55 and 110

For `O=C(O)CNCCO` [Monocine, N-hydroxyethyl glycine], which “FOX assay OD (LDL hydroperoxide)” value [1, 7] is on record?
Its value is −0.04.

And the “FOX assay OD (LDL hydroperoxide)” value [1, 8]?
Its value is 0.05.
